# Assay results: ChEMBL document CHEMBL2218064, “Structure-activity relationship data for chemical series of antagonists of the P2X7 receptor (Supplementary Bioactivity Data for publication CHEMBL1157114)”
# Biological target: T1, P2X purinoceptor 7 (Homo sapiens, UniProt Q99572)
# T1 sequence (Q99572 whole entry): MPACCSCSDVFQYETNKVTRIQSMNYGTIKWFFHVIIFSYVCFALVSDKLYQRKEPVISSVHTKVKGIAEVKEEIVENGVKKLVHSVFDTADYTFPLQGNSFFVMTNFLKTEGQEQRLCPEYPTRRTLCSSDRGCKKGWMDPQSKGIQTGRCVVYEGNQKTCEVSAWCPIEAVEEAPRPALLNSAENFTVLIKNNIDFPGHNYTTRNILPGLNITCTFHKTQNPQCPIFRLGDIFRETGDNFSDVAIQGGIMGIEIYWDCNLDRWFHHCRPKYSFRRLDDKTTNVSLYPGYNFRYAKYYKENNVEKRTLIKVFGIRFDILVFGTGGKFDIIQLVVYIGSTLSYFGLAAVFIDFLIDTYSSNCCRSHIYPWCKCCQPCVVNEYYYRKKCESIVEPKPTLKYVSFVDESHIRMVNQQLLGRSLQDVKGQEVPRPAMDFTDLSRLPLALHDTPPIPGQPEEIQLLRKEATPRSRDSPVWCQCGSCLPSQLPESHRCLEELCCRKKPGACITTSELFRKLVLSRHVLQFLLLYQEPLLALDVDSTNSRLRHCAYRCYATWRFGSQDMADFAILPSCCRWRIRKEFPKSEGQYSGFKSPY
# Assay: SUPPLEMENTARY: Inhibition of human P2X7 receptor assessed as inhibition of ethidium bromide accumulation. Same assay as CHEMBL1103860
row,SMILES,IC50 [nM]
1,O=C(c1ccc(F)cc1Cl)N1CCn2c(nnc2-c2ccccc2)C1,12.6
2,Cc1cc(-c2nnc3n2CCN(C(=O)c2cccc(C(F)(F)F)c2Cl)C3)no1,12.6
3,O=C(c1ccc(F)cc1Cl)N1CCn2c(nnc2-c2cnccn2)C1,5.01
4,O=C(c1cccc(C(F)(F)F)c1Cl)N1CCn2c(nnc2-c2ccc[nH]2)C1,1.58
5,O=C(c1cccc(C(F)(F)F)c1Cl)N1CCn2c(nnc2-c2cccnn2)C1,12.6
6,O=C(c1cccc(C(F)(F)F)c1Cl)N1CCn2c(nnc2-c2ccc(F)cn2)C1,2.51
7,Cn1cccc1-c1nnc2n1CCN(C(=O)c1cccc(Cl)c1Cl)C2,12.6
8,Cc1cc(-c2nnc3n2CCN(C(=O)c2cccc(Cl)c2Cl)C3)no1,25.1
9,O=C(c1ccc(F)cc1Cl)N1CCn2c(nnc2-c2cccnn2)C1,501
10,Cn1ccc(-c2nnc3n2CCN(C(=O)c2cccc(Cl)c2Cl)C3)n1,6.31
11,O=C(c1cccc(C(F)(F)F)c1Cl)N1CCn2c(nnc2-c2ccco2)C1,1.58
12,Cc1cc(Cl)ccc1CNC(=O)[C@@H]1CN(C)C(=O)N1C,7.94
13,CN1C[C@@H](C(=O)NCc2ccc(C#N)cc2Cl)N(C)C1=O,31.6
14,CN1C(=O)N(c2ccnc(F)c2)C[C@H]1C(=O)NCc1ccc(F)c(F)c1Cl,12.6
15,CN1C(=O)NC[C@H]1C(=O)NCc1c(F)cc(Cl)cc1Cl,15.8
16,CN1C[C@@H](C(=O)NCc2c(F)cc(Cl)cc2Cl)N(C)C1=O,5.01
17,CN1C[C@@H](C(=O)NCc2c(Cl)cc(Cl)cc2Cl)N(C)C1=O,0.794
18,CN1C(=O)NC[C@H]1C(=O)NCc1c(Cl)cc(Cl)cc1Cl,1.58
19,CN1C(=O)N(CC2CCC2)CC1C(=O)NCc1ccc(Cl)cc1Cl (stereo not drawn),5.01
20,O=C(c1ccc(Cl)cc1Cl)N1CCn2c(-c3ccccc3)cnc2C1,20

row,SMILES,IC50 [nM]
1,Cc1c(N2CCCC2)cccc1N1CCN(C(=O)c2cccc(C(F)(F)F)c2Cl)CC1=O,10
2,O=C(c1cccc(C(F)(F)F)c1Cl)N1CCN(c2cc(N3CCOCC3)ccc2Cl)C(=O)C1,7.94
3,O=C(c1ccccc1Cl)N1CCn2c(-c3ccccc3)cnc2C1,50.1
4,O=C(c1ccc(F)cc1Cl)N1CCn2c(-c3ccccc3)cnc2C1,15.8
5,O=C(c1cccc(C(F)(F)F)c1Cl)N1CCn2c(nnc2N2CCOCC2)C1,251
6,O=C(c1cccc(C(F)(F)F)c1Cl)N1CCn2c(-c3ccc(F)cc3)cnc2C1,12.6
7,CCc1nnc2n1CCN(C(=O)c1cccc(C(F)(F)F)c1Cl)C2,31.6
8,O=C(c1cccc(C(F)(F)F)c1Cl)N1CCn2c(nnc2-c2cccnc2)C1,6.31
9,Cc1ccccc1-c1cnc2n1CCN(C(=O)c1cccc(C(F)(F)F)c1Cl)C2,100
10,O=C(c1cccc(C(F)(F)F)c1Cl)N1CCn2c(nc(I)c2I)C1,6.31
11,O=C(c1cccc(C(F)(F)F)c1Cl)N1CCn2c(nnc2-c2ccncc2)C1,25.1
12,O=C(c1cccc(Cl)c1Cl)N1CCn2c(Br)nnc2C1,50.1
13,O=C(c1cccc(C(F)(F)F)c1Cl)N1CCn2c(nc(C(F)(F)F)c2-c2ccccc2)C1,50.1
14,O=C(c1c(Cl)cc(Cl)cc1Cl)N1CCn2c(Br)nnc2C1,398
15,Cc1cn2c(n1)CN(C(=O)c1cccc(C(F)(F)F)c1Cl)CC2,126
16,Cc1cn2c(n1)CN(C(=O)c1cccc(Cl)c1Cl)CC2,316
17,O=C(c1cccc(C(F)(F)F)c1Cl)N1CCn2c(-c3cccc(C(F)(F)F)c3Cl)cnc2C1,631
18,O=C(c1cccc(C(F)(F)F)c1Cl)N1CCn2c(-c3ccc(Cl)cc3)cnc2C1,251
19,O=C(c1cccc(Cl)c1Cl)N1CCn2cc(-c3ccccc3)nc2C1,631
20,O=C(c1cccc(C(F)(F)F)c1Cl)N1CCn2c(nnc2-c2ccc(F)cc2F)C1,15.8

# More lines, in order of falling IC50, values ahead:
row,IC50 [nM],SMILES
1,631,CC(C)(C)c1cn2c(n1)CN(C(=O)c1cccc(C(F)(F)F)c1Cl)CC2
2,398,Cc1ccc(N2C[C@@H](C(=O)NCc3ccc(Cl)cc3Cl)N(C)C2=O)nn1
3,316,O=C(c1ccc(F)cc1Cl)N1CCn2c(Br)nnc2C1
4,316,O=C(c1cccc(C(F)(F)F)c1Cl)N1CCn2cc(-c3ccccc3)nc2C1
5,251,CNc1nnc2n1CCN(C(=O)c1cccc(C(F)(F)F)c1Cl)C2
6,200,CC(C)(C)c1nnc2n1CCN(C(=O)c1cccc(C(F)(F)F)c1Cl)C2
7,200,O=C(c1ccc(Cl)cc1Cl)N1CCn2c(Br)nnc2C1
8,158,CC(C)c1ccnc(N2C[C@@H](C(=O)NCc3ccc(Cl)cc3Cl)N(C)C2=O)n1
9,100,O=C(c1cccc(C(F)(F)F)c1Cl)N1CCn2c(nnc2N2CCCCC2)C1
10,79.4,Cc1ccc(N2CCCC2)cc1N1CCN(C(=O)c2cccc(C(F)(F)F)c2Cl)CC1=O
11,79.4,COc1nnc2n1CCN(C(=O)c1cccc(C(F)(F)F)c1Cl)C2
12,79.4,O=C(c1cccc(C(F)(F)F)c1F)N1CCn2c(Br)nnc2C1
13,63.1,CN1C(=O)N(c2ccnc(F)c2)C[C@H]1C(=O)NCc1cccc(C(F)(F)F)c1Cl
14,50.1,Cc1ccc(-c2cccc(N3CCN(C(=O)c4cccc(C(F)(F)F)c4Cl)CC3=O)c2C)cn1
15,50.1,Cc1cnc2n1CCN(C(=O)c1cccc(C(F)(F)F)c1Cl)C2
16,39.8,Cc1ccc(Br)cc1N1CCN(C(=O)c2cccc(C(F)(F)F)c2Cl)CC1=O
17,39.8,Cc1ccc(-c2ccc(C)c(N3CCN(C(=O)c4cccc(C(F)(F)F)c4Cl)CC3=O)c2)cn1
18,39.8,Cc1c(N2CCOCC2)cccc1N1CCN(C(=O)c2c(Cl)cc(Cl)cc2Cl)CC1=O
19,31.6,O=C(c1cccc(Cl)c1Cl)N1CCn2c(nnc2-c2cccnn2)C1
20,31.6,CN1C(=O)N(c2ccnc(F)c2)C[C@H]1C(=O)NCc1ccc(Cl)cc1Cl

row,IC50 [nM],SMILES
1,31.6,CN1C(=O)N(c2cccnc2C#N)C[C@H]1C(=O)NCc1ccc(Cl)cc1Cl
2,31.6,Cc1nnc2n1CCN(C(=O)c1cccc(C(F)(F)F)c1Cl)C2
3,31.6,CC(c1ccccc1)N1CCN(C(=O)c2cccc(C(F)(F)F)c2Cl)CC1=O (stereo not drawn)
4,25.1,Cn1nccc1-c1nnc2n1CCN(C(=O)c1cccc(Cl)c1Cl)C2
5,25.1,O=C(c1cccc(C(F)(F)F)c1Cl)N1CCn2c(nnc2N2CCC2)C1
6,20,CN(C)c1nnc2n1CCN(C(=O)c1cccc(C(F)(F)F)c1Cl)C2
7,15.8,Cn1nccc1-c1nnc2n1CCN(C(=O)c1cccc(C(F)(F)F)c1Cl)C2
8,15.8,O=C(c1cccc(C(F)(F)F)c1Cl)N1CCn2c(nnc2N2CCCC2)C1
9,15.8,Cc1c(N2CCOCC2)cccc1N1CCN(C(=O)c2cccc(Cl)c2Cl)CC1=O
10,12.6,O=C(c1c(Cl)cc(Cl)cc1Cl)N1CCn2c(-c3ccccc3)cnc2C1
11,12.6,O=C(c1cccc(C(F)(F)F)c1Cl)N1CCN(c2cccc(N3CCOCC3)c2Cl)C(=O)C1
12,12.6,Cc1c(N2CCOCC2)cccc1N1CCN(C(=O)c2cccc(C(F)(F)F)c2Cl)CC1=O
13,12.6,O=C(c1cccc(C(F)(F)F)c1Cl)N1CCn2c(nnc2-c2ccncn2)C1
14,10,CN1C(=O)N(c2ccnn2C)C[C@H]1C(=O)NCc1ccc(Cl)cc1Cl
15,10,O=C(c1c(Cl)cc(Cl)cc1Cl)N1CCN(c2cc(N3CCOCC3)ccc2Cl)C(=O)C1
16,10,Cc1ccc(N2CCC(O)C2)cc1N1CCN(C(=O)c2cccc(C(F)(F)F)c2Cl)CC1=O (stereo not drawn)
17,10,O=C(c1cccc(C(F)(F)F)c1Cl)N1CCn2c(Br)cnc2C1
18,7.94,O=C(c1cccc(C(F)(F)F)c1Cl)N1CCn2c(Br)nnc2C1
19,6.31,Cn1cccc1-c1nnc2n1CCN(C(=O)c1cccc(C(F)(F)F)c1Cl)C2
20,6.31,O=C(c1cccc(C(F)(F)F)c1Cl)N1CCn2c(-c3ccccc3)cnc2C1

row,IC50 [nM],SMILES
1,5.01,Cn1ccc(-c2nnc3n2CCN(C(=O)c2cccc(C(F)(F)F)c2Cl)C3)n1
2,5.01,CC(C)N1CC(C(=O)NCc2ccc(Cl)cc2Cl)N(C)C1=O (stereo not drawn)
3,5.01,CN1C(=O)N(C2CCCC2)CC1C(=O)NCc1ccc(Cl)cc1Cl (stereo not drawn)
4,5.01,O=C(c1cccc(Cl)c1Cl)N1CCN(c2cc(N3CCOCC3)ccc2Cl)C(=O)C1
5,5.01,O=C(c1cccc(Cl)c1Cl)N1CCn2c(-c3ccccc3)cnc2C1
6,5.01,O=C(c1cccc(C(F)(F)F)c1Cl)N1CCn2c(nc(C(F)(F)F)c2Br)C1
7,3.98,O=C(c1cccc(C(F)(F)F)c1Cl)N1CCn2c(I)cnc2C1
8,3.16,CN1C(=O)N(CCF)C[C@H]1C(=O)NCc1ccc(Cl)cc1Cl
9,3.16,CCN1C[C@@H](C(=O)NCc2ccc(Cl)cc2Cl)N(C)C1=O
10,3.16,CN1C(=O)N(CC2CC2)CC1C(=O)NCc1ccc(Cl)cc1Cl (stereo not drawn)
11,3.16,O=C(c1cccc(C(F)(F)F)c1Cl)N1CCn2c(nnc2-c2ccccc2)C1
12,2.51,O=C(c1cccc(Cl)c1Cl)N1CCn2c(nnc2-c2ccc[nH]2)C1
13,2.51,CN1C(=O)N(CC(F)F)C[C@H]1C(=O)NCc1ccc(Cl)cc1Cl
14,2,CN1C(=O)N(c2ncccc2F)C[C@H]1C(=O)NCc1ccc(Cl)cc1Cl
15,2,CN1C(=O)N(CC(F)(F)F)C[C@H]1C(=O)NCc1ccc(Cl)cc1Cl
16,1.58,O=C(c1cccc(C(F)(F)F)c1Cl)N1CCn2c(nnc2-c2cscn2)C1
17,1.26,Cc1c(CNC(=O)[C@@H]2CN(C)C(=O)N2C)cccc1C(F)(F)F
18,1,O=C(c1cccc(Cl)c1Cl)N1CCn2c(nnc2-c2cscn2)C1
